Results published in patent US11542259B2, “Compounds for the treatment of kinase-dependent disorders” (Exelixis, Inc., priority 2018, dated 2023).

Experiments:
[1] = target: Met (Homo sapiens (Human), UniProt P08581); experiment: Met autophosphorylation ELISA in PC-3 cells; assay type: cell-based; conditions: cellular, HGF stimulated, read-out: c-Met IC50
In short: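 Phospho-Met (panTyr) sandwich ELISA on lysates of PC-3 cells given 100 ng/mL HGF for 10 min after 1 h compound exposure (8-point curve, 0.3% DMSO) following 3 h serum starvation. Normalised to HGF-stimulated DMSO and reference-inhibitor wells; 4-parameter logistic IC50.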

[2] = target: Human Met (residues R974-S1390 with A1209G and V1290L) (Homo sapiens, UniProt P08581); experiment: Human Met kinase assay (33P radiometric, KinaseProfiler); assay type: biochemical; conditions: 10 μM ATP, read-out: c-Met IC50
Method: (§1) Kinase activity and compound inhibition were investigated using the ^33P-Phosphoryl transfer radiometric kinase assay, performed using the KinaseProfiler™ service of Eurofins Pharma Discovery Services UK Limited. Dose-response experiments were performed using nine compound concentrations in a 96-well microtiter plate. For each assay, all compounds were prepared to a 50× final assay concentration (50 μM) in 100% DMSO, then diluted in a half-log series, with the final top concentration at 1 μM. This working stock of the compound was added to the assay well as the first component in the reaction, followed by the remaining components as detailed in the following assay protocols below. The positive control wells (100% kinase activity) contain all components of the reaction including 2% DMSO (control for solvent effects), except the compound of interest. Blank wells contain all components of the reaction, with the reference inhibitor, staurosporine. This reference compound was used to abolish kinase activity and generated the 0% kinase activity base-line. IC50 values were calculated by nonlinear regression analysis using the sigmoidal dose-response (variable slope) curve fit on XLFit version 5.3 (ID Business Solutions).
Human Met (residues R974-S1390 with A1209G and V1290L, 3.4 nM) was incubated with 8 mM MOPS pH 7.0, 0.2 mM EDTA, 250 μM KKKGQEEEYVFIE (SEO ID NO. 45), 1 mM sodium orthovanadate, 5 mM […], 10 mM magnesium acetate, and 10 μM [γ-33P-ATP]. The reaction was initiated by the addition of the Mg/ATP mix. After incubation for 40 minutes at room temperature, the reaction was stopped by the addition of phosphoric acid to a concentration of 0.5%. A reaction aliquot of […] was then spotted onto a P30 filtermat and washed four times for 4 minutes in 0.425% phosphoric acid and once in methanol prior to drying and scintillation counting. Incorporated 33P was measured using the Wallac Microbeta scintillation counter (Perkin Elmer).

[3] = target: Human Mer (residues R557-E882 with H628Q and R794A) (Homo sapiens (Human), UniProt Q12866); experiment: Human Mer kinase assay (33P radiometric, KinaseProfiler); assay type: biochemical; conditions: 10 μM ATP
Human Mer (residues R557-E882 with H628Q and R794A), sequence (Q12866 557-882, stated change not applied): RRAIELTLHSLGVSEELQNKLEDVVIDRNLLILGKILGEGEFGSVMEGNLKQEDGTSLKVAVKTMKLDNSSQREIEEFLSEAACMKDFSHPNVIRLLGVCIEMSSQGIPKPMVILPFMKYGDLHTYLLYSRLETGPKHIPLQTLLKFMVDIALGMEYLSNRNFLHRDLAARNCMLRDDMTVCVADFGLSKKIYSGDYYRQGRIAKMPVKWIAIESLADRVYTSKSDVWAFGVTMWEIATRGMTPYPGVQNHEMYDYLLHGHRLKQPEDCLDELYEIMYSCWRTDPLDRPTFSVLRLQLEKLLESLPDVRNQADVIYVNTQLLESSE
Method: as §1
Human Mer (residues R557-E882 with H628Q and R794A, 0.7 nM) was incubated with 8 mM MOPS pH 7.0, 0.2 mM EDTA, 30 mM NaCl, 250 μM GGMEDIYFEFMGGKKK (SEO ID NO. 44). 10 mM magnesium acetate, and 10 μM [γ-^33P-ATP]. The reaction was initiated by the addition of the Mg/ATP mix. After incubation for 40 minutes at room temperature, the reaction was stopped by the addition of phosphoric acid to a concentration of 0.5%. A reaction aliquot of 10 μL was then spotted onto a P30 filtermat and washed four times for 4 minutes in 0.425% phosphoric acid and once in methanol prior to drying and scintillation counting. Incorporated ^33P was measured using the Wallac Microbeta scintillation counter (Perkin Elmer).

Met, sequence (P08581 25-1390): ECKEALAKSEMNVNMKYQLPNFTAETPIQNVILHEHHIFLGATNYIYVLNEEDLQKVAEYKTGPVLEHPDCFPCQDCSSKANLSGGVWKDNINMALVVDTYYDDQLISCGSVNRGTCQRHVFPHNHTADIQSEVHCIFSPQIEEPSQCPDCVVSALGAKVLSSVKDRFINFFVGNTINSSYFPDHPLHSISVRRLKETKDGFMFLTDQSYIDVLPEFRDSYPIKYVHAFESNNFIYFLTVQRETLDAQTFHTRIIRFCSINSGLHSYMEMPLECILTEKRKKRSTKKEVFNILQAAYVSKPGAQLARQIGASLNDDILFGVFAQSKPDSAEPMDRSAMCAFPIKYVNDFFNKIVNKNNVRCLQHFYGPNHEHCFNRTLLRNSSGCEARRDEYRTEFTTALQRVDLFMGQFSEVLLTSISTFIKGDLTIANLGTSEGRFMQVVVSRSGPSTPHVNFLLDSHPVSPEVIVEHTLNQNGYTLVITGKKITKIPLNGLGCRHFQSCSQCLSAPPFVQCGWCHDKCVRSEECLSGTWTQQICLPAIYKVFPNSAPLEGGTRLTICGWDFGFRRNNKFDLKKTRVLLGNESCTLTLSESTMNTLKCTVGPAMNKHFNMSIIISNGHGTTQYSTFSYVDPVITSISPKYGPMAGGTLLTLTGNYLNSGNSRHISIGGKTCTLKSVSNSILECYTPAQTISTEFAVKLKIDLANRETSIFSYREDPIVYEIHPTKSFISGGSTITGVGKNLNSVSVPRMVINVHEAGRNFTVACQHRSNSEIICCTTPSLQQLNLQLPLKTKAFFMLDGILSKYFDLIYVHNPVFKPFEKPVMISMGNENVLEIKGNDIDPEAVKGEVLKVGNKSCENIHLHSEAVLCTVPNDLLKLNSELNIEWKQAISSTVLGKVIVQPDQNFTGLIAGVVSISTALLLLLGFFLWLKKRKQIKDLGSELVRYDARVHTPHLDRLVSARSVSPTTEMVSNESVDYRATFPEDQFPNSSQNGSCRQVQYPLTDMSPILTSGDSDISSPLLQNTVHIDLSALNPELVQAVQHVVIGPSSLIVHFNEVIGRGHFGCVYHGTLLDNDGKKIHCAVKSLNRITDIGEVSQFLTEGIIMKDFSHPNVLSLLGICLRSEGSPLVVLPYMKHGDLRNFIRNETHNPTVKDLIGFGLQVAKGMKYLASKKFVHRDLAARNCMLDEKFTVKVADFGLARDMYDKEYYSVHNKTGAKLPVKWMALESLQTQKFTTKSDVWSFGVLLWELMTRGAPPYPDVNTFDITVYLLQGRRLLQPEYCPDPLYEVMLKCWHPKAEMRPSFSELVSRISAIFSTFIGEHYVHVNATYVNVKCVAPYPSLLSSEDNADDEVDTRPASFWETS

Row | SMILES | IC50 [1] [µM] | IC50 [2] [µM] | IC50 [3] [µM]
1 | COC(=O)c1cc2c(Oc3ccc(NC(=O)C4(C(=O)Nc5ccc(F)cc5)CC4)cc3)ccnc2cc1OC [Compound 5, methyl 4-[4-[[1-[(4-fluorophenyl)carbamoyl]-cyclopropanecarbonyl]amino]-phenoxy]-7-methoxyquinoline-6-carboxylate] | 0.01 to 0.1 | ≤ 0.01 | ≤ 0.01
2 | COc1cc2nccc(Oc3ccc(NC(=O)C4(C(=O)Nc5ccc(F)cc5)CC4)cc3)c2cc1C(=O)NC1COC1 [Compound 13, 1-N′-(4-fluorophenyl)-1-N-[4-[7-methoxy-6-(oxetan-3-ylcarbamoyl)quinolin-4-yl]oxyphenyl]cyclopropane-1,1-dicarboxamide] | 0.01 to 0.1 | ≤ 0.01 | ≤ 0.01
3 | COc1cc2nccc(Oc3ccc(NC(=O)C4(C(=O)Nc5ccc(F)cc5)CC4)cc3)c2cc1C(=O)NC1CN(C)C1 [Compound 14, 1-N′-(4-fluorophenyl)-1-N-[4-[7-methoxy-6-[(1-methylazetidin-3-yl)carbamoyl]quinolin-4-yl]oxyphenyl]cyclopropane-1,1-dicarboxamide] | ≤ 0.01 | ≤ 0.01 | ≤ 0.01
4 | COc1cc2nccc(Oc3ccc(NC(=O)C4(C(=O)Nc5ccc(F)cc5)CC4)cc3)c2cc1C(=O)N1CCC1 [Compound 15, 1-N-[4-[6-(azetidine-1-carbonyl)-7-methoxyquinolin-4-yl]oxyphenyl]-1-N′-(4-fluorophenyl)cyclopropane-1,1-dicarboxamide] | 0.1 to 0.3 | 0.01 to 0.1 | ≤ 0.01
5 | COc1cc2nccc(Oc3ccc(NC(=O)C4(C(=O)Nc5ccc(F)cc5)CC4)cc3)c2cc1C(=O)N1CC(O)C1 [Compound 16, 1-N′-(4-fluorophenyl)-1-N-[4-[6-(3-hydroxyazetidine-1-carbonyl)-7-methoxyquinolin-4-yl]oxyphenyl]cyclopropane-1,1-dicarboxamide] | 0.1 to 0.3 | ≤ 0.01 | ≤ 0.01
6 | COc1cc2nccc(Oc3ccc(NC(=O)C4(C(=O)Nc5ccc(F)cc5)CC4)cc3)c2cc1C#N [Compound 37, 1-N-[4-(6-cyano-7-methoxyquinolin-4-yl)oxyphenyl]-1-N′-(4-fluorophenyl)cyclopropane-1,1-dicarboxamide] | 0.01 to 0.1 | 0.01 to 0.1 | ≤ 0.01
7 | NC(=O)c1ccc2nccc(Oc3ccc(NC(=O)C4(C(=O)Nc5ccc(F)cc5)CC4)cc3)c2c1 [Compound 58, 1-N-[4-(6-carbamoylquinolin-4-yl)oxyphenyl]-1-N′-(4-fluorophenyl)cyclopropane-1,1-dicarboxamide] | 0.1 to 0.3 | 0.01 to 0.1 | 0.01 to 0.1
8 | CNC(=O)c1ccc2nccc(Oc3ccc(NC(=O)C4(C(=O)Nc5ccc(F)cc5)CC4)cc3)c2c1 [Compound 59, 1-N′-(4-fluorophenyl)-1-N-[4-[6-(methylcarbamoyl)quinolin-4-yl]oxyphenyl]cyclopropane-1,1-dicarboxamide] | 0.1 to 0.3 | 0.01 to 0.1 | 0.01 to 0.1
9 | CN1CC(NC(=O)c2ccc3nccc(Oc4ccc(NC(=O)C5(C(=O)Nc6ccc(F)cc6)CC5)cc4)c3c2)C1 [Compound 60, 1-N′-(4-fluorophenyl)-1-N-[4-[6-[(1-methylazetidin-3-yl)carbamoyl]quinolin-4-yl]oxyphenyl]cyclopropane-1,1-dicarboxamide] | 0.1 to 0.3 | 0.01 to 0.1 | 0.01 to 0.1
10 | NC(=O)c1cc2c(Oc3ccc(NC(=O)C4(C(=O)Nc5ccc(F)cc5)CC4)cc3)ccnc2cc1F [Compound 67, 1-N-[4-(6-carbamoyl-7-fluoroquinolin-4-yl)oxyphenyl]-1-N′-(4-fluorophenyl)cyclopropane-1,1-dicarboxamide] | 0.1 to 0.3 | 0.01 to 0.1 | 0.01 to 0.1
11 | COCCOc1cc2nccc(Oc3ccc(NC(=O)C4(C(=O)Nc5ccc(F)cc5)CC4)cc3)c2cc1C(N)=O [Compound 103, 1-N-[4-[6-carbamoyl-7-(2-methoxyethoxy)quinolin-4-yl]oxyphenyl]-1-N′-(4-fluorophenyl)cyclopropane-1,1-dicarboxamide] | 0.01 to 0.1 | ≤ 0.01 | ≤ 0.01
12 | COC(=O)c1cc2c(Oc3ccc(NC(=O)C4(C(=O)Nc5ccc(F)cc5)CC4)cc3Cl)ccnc2cc1OC [Compound 128, methyl 4-[2-chloro-4-[[1-[(4-fluorophenyl)carbamoyl]cyclopropanecarbonyl]amino]phenoxy]-7-methoxyquinoline-6-carboxylate] | 0.01 to 0.1 | ≤ 0.01 | ≤ 0.01
13 | COC(=O)c1cc2c(Oc3ccc(NC(=O)C4(C(=O)Nc5ccc(F)cc5)CC4)cc3F)ccnc2cc1OC [Compound 129, methyl 4-[2-fluoro-4-[[1-[(4-fluorophenyl)carbamoyl]cyclopropanecarbonyl]amino]phenoxy]-7-methoxyquinoline-6-carboxylate] | 0.01 to 0.1 | ≤ 0.01 | ≤ 0.01
14 | COc1cc2nccc(Oc3ccc(NC(=O)C4(C(=O)Nc5ccc(F)cc5)CC4)cc3Cl)c2cc1C(=O)O [Compound 130, 4-[2-chloro-4-[[1-[(4-fluorophenyl)carbamoyl]cyclopropanecarbonyl]amino]phenoxy]-7-methoxyquinoline-6-carboxylic acid] | > 0.3 | 0.01 to 0.1 | 0.01 to 0.1
15 | COc1cc2nccc(Oc3ccc(NC(=O)C4(C(=O)Nc5ccc(F)cc5)CC4)cc3F)c2cc1C(=O)O [Compound 131, 4-[2-fluoro-4-[[1-[(4-fluorophenyl)carbamoyl]cyclopropanecarbonyl]amino]phenoxy]-7-methoxyquinoline-6-carboxylic acid] | > 0.3 | ≤ 0.01 | 0.01 to 0.1
16 | COC(=O)c1cc2nccc(Oc3ccc(NC(=O)C4(C(=O)Nc5ccc(F)cc5)CC4)cc3)c2cc1C [Compound 140, methyl 4-[4-[[1-[(4-fluorophenyl)carbamoyl]cyclopropanecarbonyl]amino]phenoxy]-6-methylquinoline-7-carboxylate] | 0.01 to 0.1 | 0.01 to 0.1 | ≤ 0.01
17 | CNC(=O)c1cc2nccc(Oc3ccc(NC(=O)C4(C(=O)Nc5ccc(F)cc5)CC4)cc3)c2cc1C [Compound 143, 1-N′-(4-fluorophenyl)-1-N-[4-[6-methyl-7-(methylcarbamoyl)quinolin-4-yl]oxyphenyl]cyclopropane-1,1-dicarboxamide] | 0.01 to 0.1 | ≤ 0.01 | ≤ 0.01
18 | COC(=O)c1cc2nccc(Oc3ccc(NC(=O)C4(C(=O)Nc5ccc(F)cc5)CC4)cc3)c2cc1OC [Compound 150, methyl 4-[4-[[1-[(4-fluorophenyl)carbamoyl]cyclopropanecarbonyl]amino]phenoxy]-6-methoxyquinoline-7-carboxylate] | 0.01 to 0.1 | ≤ 0.01 | ≤ 0.01
19 | COc1cc2c(Oc3ccc(NC(=O)C4(C(=O)Nc5ccc(F)cc5)CC4)cc3)ccnc2cc1C(N)=O [Compound 152, 1-N-[4-(7-carbamoyl-6-methoxyquinolin-4-yl)oxyphenyl]-1-N′-(4-fluorophenyl)cyclopropane-1,1-dicarboxamide] | 0.1 to 0.3 | ≤ 0.01 | ≤ 0.01
20 | CNC(=O)c1cc2nccc(Oc3ccc(NC(=O)C4(C(=O)Nc5ccc(F)cc5)CC4)cc3)c2cc1OC [Compound 153, 1-N′-(4-fluorophenyl)-1-N-[4-[6-methoxy-7-(methylcarbamoyl)quinolin-4-yl]oxyphenyl]cyclopropane-1,1-dicarboxamide] | 0.1 to 0.3 | 0.01 to 0.1 | ≤ 0.01
